The source made the active and inactive calls. No rule for the calls is given here.
Assay: Luciferase light induction in v cholerae bh1651, agonist dose response, confirmatory (AID 624254)
Settings: V. cholerae BH1651 luxOD47E, luciferase light induction, 6 h; at 50 µM (top of the series)

SMILES | activation (light increase)
COc1ccc(-c2nnn(CC(=O)c3ccc4c(c3)OCCO4)n2)cc1OC | inactive
Cc1ccc(OCCNC(=O)c2cccc(C)c2)cc1 | inactive
Cc1ccc(C(=O)N(C)CC(=O)Nc2ccc(N3CCOCC3)cc2)s1 | inactive
CCCn1nnnc1NCc1ccc(N(CC)CC)cc1 | inactive
CC(C)OC(=O)CSc1nnc(SCc2cccc3ccccc23)s1 | inactive
O=C(COC(=O)c1cc(Cl)ccc1Cl)NC1CCCC1 | inactive
CCn1nnnc1NCc1ccc(N2CCCC2)cc1 | inactive
C[C@@H]1CN([C@@H](C)CO)C(=O)c2cccc(NC(=O)C3CC3)c2O[C@H]1CN(C)S(=O)(=O)c1cccs1 | inactive
CCc1sc(N(C(=O)Cc2ccccc2)c2ccc(F)cc2)nc1-c1ccccc1 | inactive
O=C(COC(=O)C1CCC1)Nc1ccc(Oc2ccccc2)cc1 | inactive
CCC(C)Cn1c(S(=O)(=O)O)nc2ccccc21 (stereo not given) | inactive
CCOC(=O)c1c(NC(=O)c2cccs2)sc(C)c1CC | inactive
CCCCCn1c(SCC(=O)OCC)nc2cc(C(=O)N3CCC(C(N)=O)CC3)ccc2c1=O | inactive
CCN(CCNC(=O)C1CCCN(S(=O)(=O)CC)C1)c1ccccc1 (stereo not given) | inactive
COC(=O)c1sc2ncccc2c1OCc1c(Cl)cccc1Cl | inactive
COc1ccc(CNC(=O)CSc2nc3c(oc4ccccc43)c(=O)n2CC2CCCO2)cc1 (stereo not given) | inactive
CC12CCC(=O)N1C(C(=O)NNC(=O)COc1ccc(Br)cc1)CS2 (stereo not given) | inactive
CC(=O)Nc1ccccc1NS(=O)(=O)c1cn(C)cn1 | inactive
Cc1cc(N2CCC(C)CC2)nc2ccc(N3C(=O)CCC3=O)cc12 | inactive
COC(=O)c1[nH]c2ccc(C)cc2c1NC(=O)Nc1ccc(OC)cc1 | inactive
CCOC(=O)c1sc2cc([N+](=O)[O-])cc(SCCO)c2c1N | inactive
O=C(Nc1c(F)c(F)c(F)c(F)c1F)C1CCCCC1 | inactive
Cc1onc(-c2ccccc2)c1C(=O)Nc1nc2c(s1)CCCC2 | inactive

SMILES | activation (light increase)
c1cn2cc(CN3CCOCC3)nc2s1 | inactive
Clc1ncnc2scc(-c3ccccc3)c12 | inactive
CC(=O)c1cccc(NC(=O)COC(=O)Cc2ccc(Cl)cc2)c1 | inactive
O=C(COC(=O)/C=C/c1cccc(F)c1)NC1CCCC1 | inactive
Cc1cc(C)c(S(=O)(=O)Nc2ccccn2)c(C)c1 | inactive
Cc1ccc(S(=O)(=O)Nc2ccccc2F)cc1C(=O)NCCCN1CCCC1=O | inactive
CCOc1ccc2nc(SCC(=O)NC(=O)NCc3ccco3)[nH]c2c1 | inactive
CC(OC(=O)c1ccc(-n2cnnn2)cc1)C(=O)N(C)c1ccccc1 (stereo not given) | inactive
CCCNC(=O)COC(=O)/C=C/c1ccc(C)o1 | inactive
CCC1C(=O)NCCN1C(=O)CCc1nnc(CCc2ccc(OC)cc2)o1 (stereo not given) | inactive
Cc1cc(C(=O)OCC(=O)Nc2ccccc2F)c(C)o1 | inactive
CC(=O)N1CCN(C(=O)c2cc(-c3ccc(Cl)s3)nc3ccccc23)CC1 | inactive
CC1CCCN(C(=O)c2ccc3c(=O)n(Cc4ccc5c(c4)OCO5)c(=S)[nH]c3c2)C1 (stereo not given) | inactive
OCCN1CCN(CC(O)COc2ccc(Cl)cc2)CC1 (stereo not given) | inactive
COc1ccc(NS(=O)(=O)c2cccc(C(=O)N3CCCC(C)C3)c2)cc1 (stereo not given) | inactive
Cc1ccc(S(=O)(=O)NCCC(=O)O)cc1 | inactive
CCC(=O)c1coc2ccc(O)cc12 | inactive
O=C(COC(=O)C1CCN(c2ccc(C(F)(F)F)cn2)CC1)NC1CCCCC1 | inactive
COc1ccc(CCNC(=O)c2ccc(Cl)cc2Cl)cc1 | inactive
CCOC(=O)Cc1c(C)[nH]c(=S)[nH]c1=O | inactive
CCSc1nnc(NC(=O)c2ccc3ccccc3n2)s1 | inactive
Cn1cnc(S(=O)(=O)Nc2ccc(Oc3ccccc3)cc2)c1 | inactive
Cc1nc(=O)c(-c2ccccc2)c(C)n1CCCCCC(=O)O | inactive

SMILES | activation (light increase)
COc1ccc(Cl)cc1NC(=O)COC(=O)c1cc(C)oc1C | inactive
CN(C)c1nc(N)ncc1-c1ccc(Oc2ccccc2)cc1 | inactive
CCN(CC1COc2ccccc2O1)C(=S)Nc1ccccc1 (stereo not given) | inactive
COCCNC(=O)c1cnn2c1NC(c1ccco1)CC2C(F)(F)F (stereo not given) | inactive
Cc1ccccc1C(=O)Nc1ccc(-c2nc3ccc(C(=O)c4ccccc4)cc3[nH]2)cc1 | inactive
Cc1onc(-c2ccccc2)c1C(=O)N1CCOCC1 | inactive
Cn1cnc(S(=O)(=O)Nc2ccccc2)c1 | inactive
O=C(CCc1nc(-c2ccccc2)no1)N1CCCC1 | inactive
CCC(C)(C)n1nnnc1CN1CCN(c2nc3ccc(C)cc3cc2C#N)CC1 | inactive
CC1(C)Nc2ccc(O)cc2-c2c1ssc2=S | inactive
C=CCn1c(-c2cc(OC)cc(OC)c2)n[nH]c1=S | inactive
COc1ccccc1NC(=O)COC(=O)c1cc(C)oc1C | inactive
COC(=O)c1cnn(-c2nc(-c3ccccc3)cs2)c1N | inactive
C[C@H](CO)N1C[C@H](C)[C@@H](CN(C)S(=O)(=O)c2cccs2)Oc2c(NC(=O)C3CC3)cccc2C1=O | inactive
C=Cn1c(C(=O)O)ccc1-c1ccc(CC)cc1 | inactive
Cc1cc(C)n2cc(COc3ccc4ccccc4c3)nc2n1 | inactive
CCOC(=O)C1CCN(C(=O)Nc2ccc3c(c2)nc(C)n3C)CC1 | inactive
CCOC(=O)CNc1c(-c2ccc(Cl)cc2)nc2cnccn12 | inactive
CCC(CCC(=O)Nc1cccc(C(=O)O)c1)C(=O)O (stereo not given) | inactive
Cc1occc1-c1nnc(SCC(=O)NCc2cccs2)n1-c1ccc(F)cc1 | inactive
COC(=O)c1c(-c2ccc(Br)cc2)noc1N | inactive
CCCCn1nnnc1NCc1ccc(N(CC)CC)cc1 | inactive
COc1cc(NC(=O)c2ccccc2)c(OC)cc1NC(=O)CN1C(=O)N(C)C2(CCCCC2)C1=O | inactive

SMILES | activation (light increase)
COc1ccc(-c2nc(N)ncc2Oc2ccccc2Br)c(O)c1 | inactive
CCOC(=O)N1CCN(C(=S)NCCOC)CC1 | inactive
COCCNC(=S)N(CCCO)Cc1cc2cc3c(cc2[nH]c1=O)OCCO3 | inactive
COC(=O)c1cc(NC(=O)C2CC=CCC2C(=O)O)cc(C(=O)OC)c1 (stereo not given) | inactive
CC1CCCN(C(=O)Cn2c(-c3nonc3N)nc3ccccc32)C1 (stereo not given) | inactive
COC(=O)Cc1c(C)c2ccc(OC(=O)c3ccccc3)cc2oc1=O | inactive
CCCNC(=O)COC(=O)/C=C/c1ccco1 | inactive
O=C(Cc1ccc2c(c1)CCCC2)Nc1ccccc1Cl | inactive
CCc1nc(NCCCN2CCOCC2)c2oc3ccccc3c2n1 | inactive
O=c1c2cc(N3CCOCC3)ccc2[nH]c(=S)n1CC1CCCO1 (stereo not given) | inactive
CC(=O)c1cc2c(cc1NS(=O)(=O)c1ccccc1)OCO2 | inactive
CCCCn1c(=O)[nH]c(=O)c2c1nc(COc1ccc(C#N)cc1)n2CCC | inactive
O=C(Oc1ccc(=O)n(-c2ccccc2)n1)c1cccc(Cl)c1 | inactive
NC(=O)c1cc(Br)cc(C2CCCCC2)c1O | inactive
CCNC(=O)CCSc1nnc(-c2ccco2)o1 | inactive
O=C(c1cc(-c2cccs2)nn1-c1ccccc1)N1CCN(S(=O)(=O)c2ccccc2)CC1 | inactive
CCCOc1cc(C)c(S(=O)(=O)NCCOC)cc1C | inactive
CC(=O)Nc1ccc(Nc2nc(C)nc3c2oc2ccccc23)cc1 | inactive
Cn1c(SCc2cnc(-c3ccccc3)s2)nnc1C1COc2ccccc2O1 (stereo not given) | inactive
O=C(c1cccc(S(=O)(=O)N2CCc3ccccc32)c1)N1CCOCC1 | inactive
Cc1ccc(NS(=O)(=O)c2cn(C)cn2)cc1 | inactive

Source: PubChem BioAssay AID624254 (Broad Institute, 2012)
